Row | melting point [°C] | SMILES
1 | 110 to 112 | O=C(CCl)NCc1cnn(-c2ccccc2)c1
2 | 114 to 116 | N#Cc1ccc(Cl)cc1NCC1CCOC1 (configuration not stated)
3 | 99 to 101 | O=Cc1cc(Br)c2c(c1)OCCO2
4 | 144 to 146 | COc1cc(C(=O)O)ccc1OC(C)=O
5 | 186 to 188 | O=C(O)c1cccc(S(=O)(=O)Nc2ccccc2Cl)c1
6 | 138 to 140 | CN(c1ccccc1N)S(C)(=O)=O
7 | 68 to 70 | CC(C)OC(=O)CC(N)=S
8 | 134 to 136 | COc1cc(OC)c(C(C)=O)cc1Cl
9 | 117 to 119 | Sc1nnc(-c2ccc(Cl)cc2)n1Cc1ccco1
10 | 223 to 225 | O=C(O)c1cccnc1Sc1ccc(Br)cc1
11 | 240 to 242 | Cc1cc(C)cc(-c2nnc(S)o2)c1
12 | 64 to 66 | COc1ccc(C(C)=O)c2ccccc12
13 | 49 to 51 | OCc1ccn(-c2ccccc2)n1
14 | 119 to 121 | CC(C)(C)c1ccc(C(=O)O)s1
15 | 200 to 202 | O=C1NCCc2c1ccc(Cl)c2Cl
16 | 172 to 174 | CNS(=O)(=O)c1ccc(-c2ccccc2OC(F)(F)F)c(C(=O)O)c1
17 | 285 to 287 | Cc1c[nH]c(=O)n1-c1ccc(C(=O)O)cc1
18 | 88 to 90 | CCOc1ccc(Oc2ccc(S(=O)(=O)Cl)cc2)cc1
19 | 114 to 116 | Brc1ccc(Oc2ncccn2)cc1
20 | 83 to 85 | Cc1ccc(S(=O)(=O)Oc2cccnc2[N+](=O)[O-])cc1
21 | 76 to 78 | O=C(O)Cc1ccccc1OC(F)F
22 | 124 to 126 | Sc1nnc(NCc2ccco2)s1
23 | 102 to 104 | Cc1cc(N)n(-c2ccccc2C(F)(F)F)n1
24 | 165 to 167 | CN(C)C(=O)c1ccc(C=O)[nH]1
25 | 61 to 63 | CS(=O)(=O)CCC(Cc1cccc(Br)c1)C(=O)O (configuration not stated)
26 | 104 to 106 | CCc1ocnc1C(=O)O

Row | melting point [°C] | SMILES
27 | 94 to 96 | Cn1ccc(S(=O)(=O)NCC2(N)CCCCC2)c1
28 | 79 to 81 | CNc1cc(C(=O)OC)ccc1N
29 | 131 to 133 | COC(=O)c1nc(Cc2ccccc2Cl)n2ccccc12
30 | 132 to 134 | Cc1cc(-c2cccc(F)c2)nnc1Cl
31 | 106 to 108 | CCc1ccccc1NC(=O)CCl
32 | 143 to 145 | Cc1ccc(S(=O)(=O)N2Cc3ccccc3CC2C(=O)O)cc1 (configuration not stated)
33 | 164 to 166 | NS(=O)(=O)c1ccc2c(c1)NCC2
34 | 229 to 231 | Cc1n[nH]c(O)c1C#N
35 | 131 to 133 | O=C(O)c1ccccc1C(=O)N1CCCC1
36 | 199 to 201 | O=C(O)C1CCN(c2ccc3nnnn3n2)CC1
37 | 159 to 161 | Nc1ccc2oc(-c3cc(F)ccc3Br)nc2c1
38 | 75 to 77 | CC(=O)OCC(N)=S
39 | 170 to 172 | CN(C(=O)c1ccc(N)cc1)C1CCOCC1
40 | 248 to 250 | O=C(O)c1sc2cc(Cl)cc(Cl)c2c1Cl
41 | 73 to 75 | Clc1noc(-c2ccco2)n1
42 | 137 to 139 | CCc1cc2c(=O)n(N)cnc2s1
43 | 158 to 160 | CN(C)c1nc[nH]c(=O)c1N
44 | 161 to 163 | Nc1nnc(SCC2COc3ccccc3O2)s1 (configuration not stated)
45 | 215 to 217 | N#CCC(=O)Nc1ccc(S(N)(=O)=O)cc1
46 | 53 to 55 | CCOC(=O)c1sc(C(C)N)nc1C (configuration not stated)
47 | 188 to 190 | O=C1NCCc2ccc(S(=O)(=O)Cl)cc21
48 | 209 to 211 | N=C(N)c1ccc(N2CCCC2)cn1
49 | 123 to 125 | CC(C)S(=O)(=O)Nc1cccc(O)c1
50 | 200 to 202 | CC1(c2cccc(Cl)c2)NC(=O)NC1=O (configuration not stated)
51 | 282 to 284 | Cc1cc(C)c2ncc(C(=O)O)c(O)c2c1
52 | 99 to 101 | O=C(O)C1CCCN1S(=O)(=O)c1cccs1 (configuration not stated)

Row | melting point [°C] | SMILES
53 | 152 to 154 | COc1cc(C(=O)O)c(N)cc1OC(F)F
54 | 117 to 119 | CN(C)S(=O)(=O)c1ccc(Cl)nc1
55 | 121 to 123 | COc1cc(-c2nnc(CCl)o2)cc(OC)c1OC
56 | 114 to 116 | O=C(CO)NC1CCCc2ccccc21 (configuration not stated)
57 | 97 to 99 | CCc1[nH]nc(N)c1-c1ccc2c(c1)OCO2
58 | 146 to 148 | Cc1nn(C)c(C(=O)O)c1[N+](=O)[O-]
59 | 182 to 184 | CC(C)CC(C(=O)O)N1CCCCC1=O (configuration not stated)
60 | 114 to 116 | Cc1cccc(F)c1C(=O)O
61 | 142 to 144 | CN(C)CCOc1ccc(C(N)=S)cc1
62 | 225 to 227 | Cc1nc(C(=O)O)c2n1CCCC2
63 | 209 to 211 | O=C(O)c1nn(-c2ccc(F)cc2)c2c1CCCC2
64 | 76 to 78 | COC(=O)c1ncccc1O
65 | 69 to 71 | CNS(=O)(=O)Cc1cc(C)on1
66 | 57 to 59 | O=C1c2ccccc2C(=O)N1CCCCCCO
67 | 70 to 75 | Nc1cc(C(F)(F)F)ccc1NCc1ccccc1
68 | 176 to 178 | CC(C)N(C)S(=O)(=O)c1ccc(C(=O)O)cc1
69 | 95 to 101 | CCCCc1ccc2nc(N)sc2c1
70 | 91 to 93 | O=C(c1ccc(Cl)cc1)c1ncccn1
71 | 149 to 151 | CCOc1ccc(F)c(C(=O)O)c1F
72 | 213 to 215 | Cc1cc(O)nc(NN)n1
73 | 182 to 184 | CCOc1cc(C(=O)O)cc(Br)c1OC
74 | 143 to 145 | N#CCn1c(CCl)nc2ccccc2c1=O
75 | 190 to 192 | CCc1nc2ccccc2c(C(=O)O)c1C
76 | 98 to 100 | O=C(c1ccsc1)N1CCCNCC1

The remaining lines, values behind:

Row | SMILES | melting point [°C]
77 | Cc1oc(-c2cnn(C)c2)nc1C(=O)O | 249 to 251
78 | Fc1cccc2c1CN=C1CCCN12 | 71 to 73
79 | O=C(Nc1ccccc1C(=O)O)c1ccc(Cl)cc1 | 208 to 210
80 | CC(NC(=O)c1ccc2[nH]ncc2c1)C(=O)O (configuration not stated) | 229 to 231
81 | Clc1cncc(N2CCCC2)n1 | 53 to 55
82 | O=C1CCc2cc(F)ccc2N1 | 134 to 136
83 | O=C(O)C1(Cc2ccccc2)CC1 | 102 to 104
84 | CC1(c2ccc(Br)cc2)NC(=O)NC1=O (configuration not stated) | 262 to 264
85 | Cc1nc2cc(O)nn2c(C)c1CCC(=O)O | 302 to 304
86 | Cc1nn(-c2ccc(Cl)cc2)c2sc(C(=O)O)cc12 | 230 to 238
87 | COc1cc2c(cc1C(=O)CCl)C(=O)CO2 | 176 to 178
88 | CCOC(=O)c1ccc(C#N)c(S)n1 | 169 to 171
89 | CC(=O)c1cc(Br)c(F)cc1O | 77 to 79
90 | Cc1cc(C=O)c(C)n1C1CC1 | 71 to 75
91 | Cc1nnc(S)o1 | 239 to 241
92 | Cc1cc(Br)oc1C(=O)O | 169 to 171
93 | CC(NC(=O)CCl)c1ccco1 (configuration not stated) | 63 to 65
94 | Cc1ccnc(NN)c1 | 74 to 76
95 | Nc1ccc(N2CCNC(=O)C2)nc1 | 136 to 138
96 | Cc1nc2nc(C(F)(F)F)nn2c(C)c1CCC(=O)O | 123 to 125
97 | O=C(NCCO)c1ccc(Br)cn1 | 98 to 100
98 | CN(C)S(=O)(=O)c1ccc(I)c(C(=O)O)c1 | 198 to 200

Row | SMILES | melting point [°C]
99 | COC(=O)c1nc(Cl)c2ccccc2c1OC | 103 to 105
100 | NC(CN1CCCC1=O)c1cccc(C(F)(F)F)c1 (configuration not stated) | 76 to 78
101 | Cc1nc2ccccc2cc1C(=O)O | 243 to 245
102 | CC(C)(C)NS(=O)(=O)c1cccc(C(=O)O)c1 | 145 to 147
103 | Cc1nn(-c2cccc(C(F)(F)F)c2)c(C)c1C(=O)C(=O)O | 191 to 193
104 | Cc1c(NS(=O)(=O)c2ccc(N)c(N)c2)c(=O)n(-c2ccccc2)n1C | 233 to 235
105 | CCc1nnc2cc(Cl)ncn12 | 108 to 110
106 | N#CCc1ncc(C(F)(F)F)cc1Cl | 34 to 36
107 | CCOc1ccccc1-c1cccc(C(=O)O)c1 | 144 to 146
108 | FC(F)n1ccnc1CN1CCNCC1 | 73 to 75
109 | Nc1ccc(Cn2cnc3ccccc32)cc1 | 177 to 179
110 | O=C(O)c1oc2ccccc2c1CSc1ccc(Cl)cc1 | 158 to 160
111 | O=C(O)c1cc2c(s1)-c1cc(F)ccc1SC2 | 279 to 281
112 | O=C(O)c1cc(-c2ccc(-c3ccccc3)cc2)nc2ccccc12 | 289 to 291
113 | Cc1cc(N)ccc1N1CCSCC1 | 67 to 69
114 | COc1cccc(Nc2nnc(S)s2)c1 | 208 to 210
115 | CCOC(=O)c1sc2nc(Cl)cc(C)c2c1C | 125 to 127
116 | O=C(O)Cc1csc(-c2cc(Br)cs2)n1 | 129 to 131
117 | Cc1cc(CN2CCNCC2)no1 | 59 to 71
118 | O=C(O)c1csc(-c2ccc3c(c2)OCCO3)n1 | 199 to 201
119 | Nc1cc(Cc2ccccc2)ccc1O | 136 to 138
120 | Cc1noc2nc(-c3ccccc3C(F)(F)F)cc(C(=O)O)c12 | 170 to 172

Row | SMILES | melting point [°C]
121 | O=c1cc(O)nc(S)n1-c1ccc(Cl)cc1 | 188 to 190
122 | Cc1nc2c(cnn2-c2cccc(Cl)c2)c(=O)[nH]1 | 114 to 116
123 | COC(=O)CNS(=O)(=O)c1ccc(N)cc1 | 78 to 80
124 | CN(C)C(=O)c1csc(C(=O)CCl)c1 | 142 to 144
125 | Cc1nc(NC(=O)OC(C)(C)C)sc1C(N)=O | 279 to 281
126 | CC(=CC(=O)O)c1ccc(F)cc1F | 157 to 159
127 | NC(=O)C1CNc2ccccc2N1 (configuration not stated) | 99 to 101
128 | Cc1cc(C)cc(Oc2ccc(CN)cc2C)c1 | 56 to 58
129 | Cc1ccccc1-n1c(S)nc2sc3c(c2c1=O)CCC(C)C3 (configuration not stated) | 230 to 232
130 | Cc1ccc(-n2nnnc2S)cc1 | 112 to 114
131 | CN1CC(=O)N(Cc2ccc(C(N)=O)cc2N)C1=O | 187 to 189
132 | O=C(O)Cn1c(=O)oc2ccccc21 | 178 to 180
133 | CCOc1cc(C(=O)O)cc(-c2ccccc2)c1OC | 161 to 163
134 | O=C(O)CN1C(=O)CSc2ccccc21 | 151 to 153
135 | COc1ccc(SCC(=O)O)cc1 | 77 to 79
136 | O=C(Nc1ccccc1)Nc1ccc(C(=O)O)cc1 | 260 to 262
137 | CC(C)(C)OC(=O)Nc1ccc(C(F)(F)F)cc1N | 140 to 142
138 | CCCOc1ccc(C#N)cc1OC | 90 to 92
139 | COC(C)(C(=O)O)c1ccccc1 (configuration not stated) | 44 to 46
140 | O=C(O)c1cc2cccc(Cl)c2o1 | 243 to 245
141 | COc1cc(C)ccc1Oc1ccc(F)cc1N | 60 to 62
142 | Cc1nc(N)n[nH]1 | 142 to 144

From a melting point compilation (Tetko et al.)
